{"source": "patent US20200017496A1", "about": "(priority 2017, published 2020)", "system": "Escherichia coli (ECO) isolates", "experiment": "MIC of compounds alone and combined with antibacterials, broth microdilution (CLSI)", "assay_type": "cell-based", "conditions": "alone", "method_in_brief": "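Log-phase isolates at final 5·10^5 CFU/mL in cation-adjusted Mueller-Hinton broth, incubated 16-20 h at 35° C in ambient air. MIC read visually as lowest concentration preventing growth, for compound alone and for antibacterial at each compound concentration.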"}
{"smiles": "NC(=O)[C@@H]1CC[C@@H]2CN1C(=O)N2OC(F)(F)C(=O)[O-].[Na+]", "note": "[EA1]", "values": [{"measurement": "MIC", "setting": "ECO 4133", "result": 16, "unit": "µg/mL"}, {"measurement": "MIC", "setting": "ECO 5302", "result": 16, "unit": "µg/mL"}, {"measurement": "MIC", "setting": "ECO 131119", "result": 32, "unit": "µg/mL"}, {"measurement": "MIC", "setting": "ECO 180070", "result": ">32", "unit": "µg/mL"}, {"measurement": "MIC", "setting": "ECO 190314", "result": ">32", "unit": "µg/mL"}, {"measurement": "MIC", "setting": "ECO 190317", "result": 16, "unit": "µg/mL"}, {"measurement": "MIC", "setting": "ECO 190457", "result": 16, "unit": "µg/mL"}, {"measurement": "MIC", "setting": "ECO 190549", "result": 16, "unit": "µg/mL"}, {"measurement": "MIC", "setting": "ECO 200159", "result": 32, "unit": "µg/mL"}, {"measurement": "MIC", "setting": "ECO 200259", "result": 16, "unit": "µg/mL"}, {"measurement": "MIC", "setting": "ECO 200344", "result": ">32", "unit": "µg/mL"}, {"measurement": "MIC", "setting": "ECO 260096", "result": 16, "unit": "µg/mL"}, {"measurement": "MIC", "setting": "ECO 260304", "result": 32, "unit": "µg/mL"}, {"measurement": "MIC", "setting": "ECO 260508", "result": 16, "unit": "µg/mL"}, {"measurement": "MIC", "setting": "ECO RGN238", "result": ">32", "unit": "µg/mL"}, {"measurement": "MIC", "setting": "ECO UFR15", "result": 32, "unit": "µg/mL"}, {"measurement": "MIC", "setting": "ECO UFR16", "result": 16, "unit": "µg/mL"}, {"measurement": "MIC", "setting": "ECO UFR17", "result": 16, "unit": "µg/mL"}, {"measurement": "MIC", "setting": "ECO UFR18", "result": 16, "unit": "µg/mL"}, {"measurement": "MIC", "setting": "ECO UFR19", "result": 16, "unit": "µg/mL"}, {"measurement": "MIC", "setting": "ECO UFR20", "result": 64, "unit": "µg/mL"}, {"measurement": "MIC", "setting": "ECO UFR61O", "result": 32, "unit": "µg/mL"}, {"measurement": "MIC", "setting": "ECO UFR62", "result": 16, "unit": "µg/mL"}, {"measurement": "MIC", "setting": "ECO UFR74", "result": ">32", "unit": "µg/mL"}, {"measurement": "MIC", "setting": "ECO UFR86", "result": 16, "unit": "µg/mL"}, {"measurement": "MIC", "setting": "ECO UFR174", "result": 8, "unit": "µg/mL"}, {"measurement": "MIC", "setting": "ECO UFR175", "result": 32, "unit": "µg/mL"}, {"measurement": "MIC", "setting": "ECO UFR176", "result": 32, "unit": "µg/mL"}, {"measurement": "MIC", "setting": "ECO UFR184", "result": 8, "unit": "µg/mL"}, {"measurement": "MIC", "setting": "ECO UFR185", "result": 16, "unit": "µg/mL"}, {"measurement": "MIC", "setting": "ECO UFR186", "result": ">32", "unit": "µg/mL"}, {"measurement": "MIC", "setting": "ECO UFR187", "result": ">32", "unit": "µg/mL"}, {"measurement": "MIC", "setting": "ECO UFR189", "result": 16, "unit": "µg/mL"}, {"measurement": "MIC", "setting": "ECO UFR190", "result": 16, "unit": "µg/mL"}, {"measurement": "MIC", "setting": "ECO UFR191", "result": 32, "unit": "µg/mL"}, {"measurement": "MIC", "setting": "ECO UFR207", "result": 32, "unit": "µg/mL"}, {"measurement": "MIC", "setting": "ECO UFR208", "result": ">32", "unit": "µg/mL"}, {"measurement": "MIC", "setting": "ECO UFR209", "result": 16, "unit": "µg/mL"}, {"measurement": "MIC", "setting": "ECO UFR210", "result": 16, "unit": "µg/mL"}, {"measurement": "MIC", "setting": "ECO UFR211", "result": ">32", "unit": "µg/mL"}, {"measurement": "MIC", "setting": "ECO UFR212", "result": 16, "unit": "µg/mL"}, {"measurement": "MIC", "setting": "ECO UFR218", "result": 16, "unit": "µg/mL"}]}
